One assay deals with T1, Gal4 PPARδ (Homo sapiens, UniProt Q03181).
T1 construct: expressed in transfected cells; host or cells: CV1 (African green monkey kidney)
T1 sequence (Q03181 211-439 limits assumed): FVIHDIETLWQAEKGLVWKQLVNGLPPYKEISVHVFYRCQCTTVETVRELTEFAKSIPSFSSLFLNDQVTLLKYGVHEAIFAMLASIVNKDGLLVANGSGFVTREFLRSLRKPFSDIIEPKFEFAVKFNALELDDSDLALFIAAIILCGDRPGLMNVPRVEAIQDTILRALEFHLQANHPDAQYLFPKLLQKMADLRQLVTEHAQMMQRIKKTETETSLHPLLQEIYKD
Briefly: Gal4 PPARδ reporter functional assay (CTF). The class given is cell-based. To be noted: examined up to 10 μM; CV1 cells; luciferase. From the text:
(§1) Gal4 PPARα, Gal4 PPARδ, and PPARγ reporter functional assays are also used to monitor the selectivity of exemplified compounds. CV1 cells, which are derived from the renal tissue of an African green monkey, are transfected with various receptor and reporter plasmids using Fugene. For the Gal4 PPARα and PPARδ assays, a reporter plasmid containing five tandem copies of the yeast transcription protein Gal4 response element, cloned upstream of a firefly luciferase gene driven by the major late promoter of adenovirus, is transfected together with a Simian Virus 40 (SV40) driven plasmid constitutively expressing a hybrid protein containing the Gal4 DNA binding domain (DBD), and either the PPARα or PPARδ ligand binding. For the PPARγ assay, plasmids encoding PPARγ and RXRα, both driven by a cytomegalovirus (CMV) promoter are transfected together with a plasmid containing luciferase reporter cDNA driven by the TK promoter and a receptor response element (2×PPRE). Cells are transfected in T225 cm^2 cell culture flasks in DMEM media with 5% charcoal-stripped FBS. […] After 24 hours incubation with compounds, cells are lysed and luciferase activity is determined as a measure of receptor activation by luminescence. […] The maximum percent stimulation is determined versus maximum stimulation obtained with 10 μM of an appropriate PPAR agonist reference compound. […]

The target in another assay is T2, PPARγ (Homo sapiens, UniProt P37231).
T2 sequence (P37231 1-505): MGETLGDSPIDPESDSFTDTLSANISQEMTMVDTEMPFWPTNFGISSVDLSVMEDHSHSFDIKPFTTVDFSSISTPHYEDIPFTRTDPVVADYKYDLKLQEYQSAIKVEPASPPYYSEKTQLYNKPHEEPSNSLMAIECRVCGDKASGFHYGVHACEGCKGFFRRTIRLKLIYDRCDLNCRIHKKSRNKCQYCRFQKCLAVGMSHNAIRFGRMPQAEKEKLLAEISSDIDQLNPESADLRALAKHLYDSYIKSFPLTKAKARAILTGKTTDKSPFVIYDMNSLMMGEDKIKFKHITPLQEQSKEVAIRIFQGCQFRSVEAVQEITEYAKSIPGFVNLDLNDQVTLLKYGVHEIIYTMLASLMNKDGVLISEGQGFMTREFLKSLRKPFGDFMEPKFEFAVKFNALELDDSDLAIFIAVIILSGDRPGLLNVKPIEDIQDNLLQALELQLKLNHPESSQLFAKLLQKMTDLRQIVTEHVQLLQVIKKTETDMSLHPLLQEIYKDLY
T2 sequence (P19793 1-462 partner): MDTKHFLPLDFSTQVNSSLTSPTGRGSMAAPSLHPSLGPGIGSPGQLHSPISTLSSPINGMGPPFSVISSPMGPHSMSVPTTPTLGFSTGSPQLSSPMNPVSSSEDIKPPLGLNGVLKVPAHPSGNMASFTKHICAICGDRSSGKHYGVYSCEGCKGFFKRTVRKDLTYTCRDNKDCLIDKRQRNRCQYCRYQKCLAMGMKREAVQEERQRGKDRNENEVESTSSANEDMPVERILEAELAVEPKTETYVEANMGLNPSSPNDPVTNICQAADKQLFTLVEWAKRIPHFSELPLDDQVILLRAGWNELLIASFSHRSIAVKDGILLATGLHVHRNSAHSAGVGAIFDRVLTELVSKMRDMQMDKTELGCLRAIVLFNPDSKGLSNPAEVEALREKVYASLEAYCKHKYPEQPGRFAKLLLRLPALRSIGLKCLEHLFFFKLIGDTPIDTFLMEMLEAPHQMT
Put plainly: PPARγ reporter functional assay (CTF). The assay is classed as cell-based. To be noted: examined up to 10 μM; CV1 cells; luciferase.
Source text: as §1

Structures are written as SMILES.

In the case of `CC#C[C@@H](CC(=O)O)c1ccc(OCc2ccc(CN3CCC4(C=Cc5ccccc54)CC3)cc2)cc1` [Example 1, (3S)-3-(4-{[4-(1′H-Spiro[indene-1,4′-piperidin]-1′-ylmethyl)benzyl]oxy}phenyl)hex-4-ynoic acid], the functional activation result on Gal4 PPARδ and at PPARγ was “No functional activation” in each case.

(Values after patent US8383642B2, “Spiropiperidine compounds” (Eli Lilly and Company, priority 2009, dated 2013).)
